Test results taken from patent EP3124047A1, “PENTACYCLIC TRITERPENOIDS FOR INJECTION LIPOLYSIS” (Merz Pharma GmbH & Co. KGaA, priority 2015, dated 2017).
Like-named read-outs stand apart in the source and are kept apart here.

How the values were obtained:
mature adipocytes = test: Alamar blue (resazurin) cell viability assay on mature adipocytes, surrogate for adipocytolytic potential; type: cell-based, human; conditions: for IC50: viability, 48 hrs after compound incubation; for lower IC50 value compared to deoxycholic acid (difference, higher adipocytolytic effect): IC50 ratio versus deoxycholic acid, preadipocytes and adipocytes
Description: (§1) The following experimental setup was used for determination of adipocytolytic potential of test compounds with preadipocytes and mature adipocytes: • Primary human preadipocytes (PromoCell) were seeded in Preadipocyte Growth Medium at 45000 cells/cm^2 to allow attachment overnight. Cells were cultured at 37°C and 5% CO2 until postconfluence. Differentiation was started with incubation of cells in Differentiation Medium for 7 days followed by incubation in Nutrition medium for further 14 days. After differentiation process, mature adipocytes were incubated with indicated concentration of indicated triterpenes.
(§2) 6 replicates of each test compound concentration were tested. Each plate included a negative control and a compound interference control (for all concentrations, duplicates).
(§3) Cell viability as surrogate for adipocytolytic potential of compounds were analysed by alamar blue assay. In brief, 20µl of a 0,1mg/ml Resazurin sodium salt (Sigma; R7017-1 G) solution was added to each well 48 hrs after compound incubation. The cells were incubated for 90 min at 37°C and 5% CO2 and the resulting conversion of resazurin to resorufin was measured by a fluorescence plate reader at 590 nm. Vehicle controls were set as 100%. IC50-values were analysed using SigmaBlotV13.

[1] = test system: Primary human preadipocytes; test: Alamar blue (resazurin) cell viability assay on preadipocytes; type: cell-based; conditions: for viability at 10 µM / viability at 30 µM / viability at 50 µM / viability at 100 µM / viability at 300 µM: read-out: Viability Preadipocytes (%); for IC50: viability, 48 hrs after compound incubation, read-out: IC50 [µM] Pre-ad ipocytes
Description: as §1, §2, §3

adipocytes [2] = test: Caspase-Glo 3/7 Assay, apoptosis induction in adipocytes; type: cell-based, human; conditions: for Apoptosis Adipocytes (%): basal apoptosis (vehicle) = 100%
Description: as §1
For analysing the potential of compounds to induce apoptosis the Caspase-Glo® 3/7 Assay (Promega) was used as recommended by the supplier. In brief, 100µl Caspase Reagent were added to 100µl cell culture medium and cells were incubated at 37°C and 5% CO2 for 1 hr. Luminescence signal was measured with a SynergyH4 plate reader. Vehicle controls were used to define basal apoptosis as 100%. Table 1 Impact on viability of adipocytes after 48h incubation with indicated compound in increasing concentration

adipocytes [3] = test: LDH release from adipocytes (indicative for membrane damage); type: cell-based, human; conditions: compared with deoxycholate; far not as high as 4fold
[4] = Homo sapiens, Adipocyte, 48 h, 10 µM, 48h incubation, vehicle controls = 100%, read-out: Viability Adipocytes (%)
[5] = Homo sapiens, Adipocyte, 48 h, 30 µM, 48h incubation, vehicle controls = 100%, read-out: Viability Adipocytes (%)
[6] = Homo sapiens, Adipocyte, 48 h, 50 µM, 48h incubation, vehicle controls = 100%, read-out: Viability Adipocytes (%)
[7] = Homo sapiens, Adipocyte, 48 h, 100 µM, 48h incubation, vehicle controls = 100%, read-out: Viability Adipocytes (%)
[8] = Homo sapiens, Adipocyte, 48 h, 300 µM, 48h incubation, vehicle controls = 100%, read-out: Viability Adipocytes (%)
[9] = 10 µM, 48h incubation, vehicle controls = 100%
[10] = 30 µM, 48h incubation, vehicle controls = 100%
[11] = 50 µM, 48h incubation, vehicle controls = 100%
[12] = 100 µM, 48h incubation, vehicle controls = 100%
[13] = 300 µM, 48h incubation, vehicle controls = 100%
[14] = Homo sapiens, Adipocyte, 48 h, read-out: Viability Adipocytes (%), 10 µM, 48h incubation, vehicle controls = 100%
[15] = Homo sapiens, Adipocyte, 48 h, read-out: Viability Adipocytes (%), 30 µM, 48h incubation, vehicle controls = 100%
[16] = Homo sapiens, Adipocyte, 48 h, read-out: Viability Adipocytes (%), 50 µM, 48h incubation, vehicle controls = 100%
[17] = Homo sapiens, Adipocyte, 48 h, read-out: Viability Adipocytes (%), 100 µM, 48h incubation, vehicle controls = 100%
[18] = Homo sapiens, Adipocyte, 48 h, read-out: Viability Adipocytes (%), 300 µM, 48h incubation, vehicle controls = 100%

| Compound | viability at 10 µM (mature adipocytes; [4]) | viability at 30 µM (mature adipocytes; [5]) | viability at 50 µM (mature adipocytes; [6]) | viability at 100 µM (mature adipocytes; [7]) | viability at 300 µM (mature adipocytes; [8]) | IC50 (mature adipocytes; Homo sapiens, Adipocyte) | viability at 10 µM [1, 9] | viability at 30 µM [1, 10] | viability at 50 µM [1, 11] | viability at 100 µM [1, 12] | viability at 300 µM [1, 13] | IC50 [1] | viability at 10 µM (mature adipocytes; [14]) | viability at 30 µM (mature adipocytes; [15]) | viability at 50 µM (mature adipocytes; [16]) | viability at 100 µM (mature adipocytes; [17]) | viability at 300 µM (mature adipocytes; [18]) | viability at 30 µM ([1]; 48 h) | viability at 50 µM ([1]; 48 h) | viability at 100 µM ([1]; 48 h) | other results |
| --- | --- | --- | --- | --- | --- | --- | --- | --- | --- | --- | --- | --- | --- | --- | --- | --- | --- | --- | --- | --- | --- |
| C=C(C)[C@@H]1CC[C@]2(C(=O)O)CC[C@]3(C)[C@H](CC[C@@H]4[C@@]5(C)CC[C@H](O)C(C)(C)[C@@H]5CC[C@]43C)[C@@H]12 [Betulinic acid, (3β)-3-hydroxy-lup-20(29)-en-28-oic acid] | 104% | 85.6% | 70.7% | 32.3% | 4.9% | 72 µM | 81.8% | 48.5% | 45.1% | 17.5% | 0.45% | 35.5 µM | – | – | – | – | – | – | – | – | – |
| C[C@H]1[C@H](C)CC[C@]2(C(=O)O)CC[C@]3(C)C(=CC[C@@H]4[C@@]5(C)C[C@@H](O)[C@H](O)C(C)(C)[C@@H]5CC[C@]43C)[C@H]12 [Corosolic acid, (1S,2R,4aS,6aR,6aS,6bR,8aR,10R, 11R,12aR,14bS)-10,11-Dihydroxy-1,2,6a,6b,9,9,12a-heptamethyl-2,3,4,5,6,6a,7,8,8a,10,11,12,13,14b-tetradecahydro-1H-picene-4a-carboxylic acid] | – | – | – | – | – | 45 µM | – | – | – | – | – | 43.1 µM | 92.9% | 60.5% | 45.3% | 6.06% | 0.47% | 68.6% | 20.4% | 0% | viability at 10 µM ([1]; 48 h): 94.7%; viability at 300 µM ([1]; 48 h): 0% |
| C[C@H](CCC(=O)O)[C@H]1CC[C@H]2[C@@H]3CC[C@@H]4C[C@H](O)CC[C@]4(C)[C@H]3C[C@H](O)[C@]12C [Deoxycholic acid, reference compound] | 107% | – | 95.6% | 94.3% | 22.1% | 244 µM | 96.2% | 92.8% | 95.6% | 98% | 26.1% | 232 µM | – | – | – | – | – | – | – | – | viability at 200 µM (mature adipocytes; Homo sapiens, Adipocyte, 48 h, 200 µM, concentration required for 50%-decrease in viability): ~50% |
| CC1(C)CC[C@]2(C(=O)O)CC[C@]3(C)C(=CC[C@@H]4[C@@]5(C)C[C@@H](O)[C@H](O)C(C)(C)[C@@H]5CC[C@]43C)[C@@H]2C1 [Maslinic acid, (4aS,6aR,6aS,6bR,8aR,10R,11R,12aR,14bS)-10,11-dihydroxy-2,2,6a,6b,9,9,12a-heptamethyl-1,3,4,5,6,6a,7,8,8a,10,11,12,13,14b-tetradecahydropicene-4a-carboxylic acid] | 96.9% | 76.7% | ~50% | 4.86% | 0.3% | 53.4 µM | 96.4% | 76% | 45.6% | 2.42% | 0% | 54.3 µM | – | – | – | – | – | – | – | – | Viability Adipocytes (%) (mature adipocytes; [11]): 47.08%; Apoptosis Adipocytes (%) (adipocytes [2]; 30 µM, 6 hrs): 97.17%; Apoptosis Adipocytes (%) (adipocytes [2]; 30 µM, 48hrs): 121.70%; Apoptosis Adipocytes (%) (adipocytes [2]; 50 µM, 6 hrs): 126.43%; Apoptosis Adipocytes (%) (adipocytes [2]; 50 µM, 48hrs): 116.95%; max. apoptosis induction over basal levels (adipocytes [2]; 100 µM after 6 hrs): 6.6 fold; Apoptosis Adipocytes (%) (adipocytes [2]; 100 µM, 6 hrs): 662.48%; Apoptosis Adipocytes (%) (adipocytes [2]; 100 µM, 48hrs): 304.15%; Apoptosis Adipocytes (%) (adipocytes [2]; 200 µM, 48hrs): 378.25%; Apoptosis Adipocytes (%) (adipocytes [2]; 300 µM, 6 hrs): 398.94%; Apoptosis Adipocytes (%) (adipocytes [2]; 300 µM, 48hrs): 238.76%; pro-apoptotic capacity (adipocytes [2]; summary of the apoptosis data): clear pro-apoptotic capacity; LDH release (indicative for membrane damage) from the adipocytes (adipocytes [3]): higher |
| CC1(C)CC[C@]2(C(=O)O)CC[C@]3(C)C(=CC[C@@H]4[C@@]5(C)CC[C@H](O)C(C)(C)[C@@H]5CC[C@]43C)[C@@H]2C1 [Oleanolic acid, (4aS,6aR,6aS,6bR,8aR,10S,12aR,14bS)-10-hydroxy-2,2,6a,6b,9,9,12a-heptamethyl-1,3,4,5,6,6a,7,8,8a,10,11,12,13,14b-tetradecahydropicene-4a-carboxylic acid] | – | – | – | – | – | 92.8 µM | – | – | – | – | – | 125 µM | 114% | 110% | 117% | 32.4% | 15.8% | 79.1% | 83.4% | 53.3% | lower IC50 value compared to deoxycholic acid (difference, higher adipocytolytic effect) (mature adipocytes): 2.5 fold; viability at 300 µM ([1]; 48 h): 0% |
| C[C@H]1[C@H](C)CC[C@]2(C(=O)O)CC[C@]3(C)C(=CC[C@@H]4[C@@]5(C)CC[C@H](O)C(C)(C)[C@@H]5CC[C@]43C)[C@H]12 [Ursolic acid, (1S,2R,4aS,6aR,6aS,6bR,8aR,10S,12aR,14bS)-10-hydroxy-1,2,6a,6b,9,9,12a-heptamethyl-2,3,4,5,6,6a,7,8,8a,10,11,12,13,14b-tetradecahydro-1H-picene-4a-carboxylic acid] | 92.4% | 28.9% | 14.9% | 13.4% | 10.3% | 24.4 µM | 74.8% | 12.7% | 0.32% | 0% | 0% | 20.1 µM | – | – | – | – | – | – | – | – | lower IC50 value compared to deoxycholic acid (difference, higher adipocytolytic effect) (mature adipocytes): about 10 fold |
